Key:
[1] = test system: Male genetically diabetic rats (BB/wor rats); assay: Erectile responses to cavernosal nerve stimulation in anesthetized diabetic rats; type: in vivo, rat; settings: 10 mg/kg intravenous; 60 min after administration; 1, 3 and 10 Hz
Protocol: Male genetically diabetic rats (BB/wor rats, Mölegaard Breeding and Research, Svensved, Denmark) were anesthetized with ketamine (60 mg/kg). The surgical procedure consisted of dissection and isolation of the right cavernous nerve through an abdominal midline incision and exposure of penile crura through a transverse perineal incision. Intracavemosal pressure (ICP) measurements were accomplished by insertion into the right crus of a 23-gauge needle connected to a disposable pressure transducer (Abbott, Sligo, Ireland) and a data acquisition system (ADInstruments, Castle Hill, Australia). Left carotid artery and right external jugular vein were catheterized for constant blood pressure measurement and saline or drug infusion, respectively. Electrical stimulation was applied by a delicate platinum bipolar hook electrode connected to a stimulator and current amplifier (Cibertec, Madrid, Spain). […]
Relaxation responses are expressed as percentage of total relaxation (loss in tone) induced by the addition of 0.1 mM papaverine HCl to the chambers at the end of the experiment. All data are expressed as mean ± standard error. […] Erectile responses were determined by measuring the area under the curve (AUC) of the intracavemosal pressure increases to rat cavemosal nerve stimulation normalized by mean arterial pressure values. […]

[2] = test system: human penile resistance arteries (HPRA); assay: Vascular reactivity of resistance penile arteries (myograph, norepinephrine-contracted)
Protocol: Penile small arteries, helicine arteries (lumen diameter 150-400 μm), which are the terminal branches of deep penile arteries, were dissected by carefully removing the adhering trabecular tissue, and arterial ring segments (of 2 mm length) were subsequently mounted on two 40 μm wires on microvascular double Halpern-Mulvany myographs (J.P. Trading, Aarhus, Denmark) for isometric tension recordings. The vascular segments were allowed to equilibrate for 30 min in physiological salt solution (PSS) of the following composition (each given in mM): 119 NaCl, 4.6 KCl; 1.5 CaCl2, 1.2 MgCl2, 24.9 NaHCO3, 11 Glucose, 1, 2 KH2PO4, 0.027 EDTA in water at 37° C., continuously bubbled with a 95% O2/5% CO2 mixture to maintain a pH of 7.4. Passive tension and internal circumference of the vascular segments when relaxed in situ under a transmural pressure of […] (L100) were determined. The vascular segments were then set to an internal circumference eqivalent to 90% of L100, at which the force development was close to maximal as described in Mulvany MJ, Halpern W., “Contractile properties of small resistance arteries in spontaneously hypertensive and normotensive rats”, Circ. Res., 41, 19-26, 1977. The respective literature description is incorporated by reference and is part of the disclosure.
The preparations were then exposed to 125 mM K^+(KPSS, equimolar substitution of […] in PSS) and the contractile response was measured. The arteries were contracted with 1 μm norepinephrine (approximately 80% of KPSS induced contraction) and relaxation responses were evaluated by cumulative additions of compounds to the chambers.
Relaxation responses are expressed as percentage of total relaxation (loss in tone) induced by the addition of 0.1 mM papaverine HCl to the chambers at the end of the experiment. All data are expressed as mean ± standard error. Complete concentration-response or frequency-response curves were obtained and compared by a two-factor analysis of variance (ANOVA) statistical test using StatView sotfware tor Apple computers. Erectile responses were determined by measuring the area under the curve (AUC) of the intracavemosal pressure increases to rat cavemosal nerve stimulation normalized by mean arterial pressure values. The complete frequency-response curves were compared by a two-factor ANOVA test.

O=S(=O)(O)c1cc(O)ccc1O [Calcium dobesilate, calcium 2,5-dihydroxybenzenesulfonate]
erectile responses to cavernosal nerve stimulation (AUC of ICP increase normalized by mean arterial pressure) [1]: significantly enhanced
potentiating effects on ACh-induced relaxation of HPRA with APA and CTX ([2]; APA 100 nM + CTX 100 nM, NOS and COX inhibition): abolished the potentiating effects
effect on ACh-induced relaxation of HPRA ([2]; calcium dobesilate 10 μM): markedly potentiated
potentiation of ACh-induced relaxation of HPRA under combined inhibition of NOS and COX ([2]; calcium dobesilate 10 μM, NOS and COX inhibition): not significantly affected
potentiation of ACh-induced relaxation of HPRA at high potassium concentration ([2]; calcium dobesilate 10 μM, high potassium 35 mM): abolished
potentiating effects on ACh-induced relaxation of HPRA resistant to NOS and COX inhibition, with miconazole ([2]; miconazole 0.3 mM): significantly reduced the potentiating effects

— US20060135611A1, “Use of 2,5-dihydroxybenzenesulfonic compounds for the treatment of disorders based on an impairment of no production and/or of regulation of edhf function” (priority 2002, published 2006)
